Measurements: patent US8728517B2, “Pharmaceutical compositions of entacapone co-micronized with sugar alcohols” (Wockhardt Ltd., priority 2008, dated 2014)

Test: Percent drug release of poorly soluble drugs combined with sugar alcohols
Type: physicochemical
Conditions: for effect on percent release: with sugar alcohols like mannitol or sorbitol, as physical mixture or complex

| SMILES | effect on percent drug release (co-micronized with sugar alcohols vs formulation not co-micronized with a sugar alcohol) | effect on percent release |
| --- | --- | --- |
| CCN(CC)C(=O)/C(C#N)=C/c1cc(O)c(O)c([N+](=O)[O-])c1 [entacapone, (E)-2-cyano-3-(3,4-dihydroxy-5-nitrophenyl)-N,N-diethyl-2-propenamide] | significant increase | – |
| O=C1CCc2ccc(OCCCCN3CCN(c4cccc(Cl)c4Cl)CC3)cc2N1 [aripiprazole] | – | does not make any significant difference |
| CCCCC1=NC2(CCCC2)C(=O)N1Cc1ccc(-c2ccccc2-c2nnn[nH]2)cc1 [irbesartan] | – | does not make any significant difference |
